Results on 5 compounds are retold here after US20250352508A1, “PREVENTION AND TREATMENT OF POST-ACUTE INFECTION SYNDROMES” (InflammX Therapeutics, Inc., priority 2024, published 2025).

Where two headings read alike, the source gives them in different places. Where a SMILES comes first, the peptide text is derived from it.

One data set concerns NLRC4 inflammasome. To be noted: cited from earlier work.
A further data set concerns AIM2 inflammasome. The following applies: cited from earlier work.
A further data set addresses NLRP3 inflammasome (Homo sapiens, UniProt Q96P20). To be noted: cited from earlier work.
The subject of a further data set is Cx43 hemichannel. The following applies: glioma cells; read-out: IC50 (half maximal inhibitory concentration) for the inhibition of ATP release; cited from earlier work.
The target of another data set is gap junction (Homo sapiens, UniProt P17302). To be noted: cited from earlier work.
Chain of gap junction (P17302 whole entry): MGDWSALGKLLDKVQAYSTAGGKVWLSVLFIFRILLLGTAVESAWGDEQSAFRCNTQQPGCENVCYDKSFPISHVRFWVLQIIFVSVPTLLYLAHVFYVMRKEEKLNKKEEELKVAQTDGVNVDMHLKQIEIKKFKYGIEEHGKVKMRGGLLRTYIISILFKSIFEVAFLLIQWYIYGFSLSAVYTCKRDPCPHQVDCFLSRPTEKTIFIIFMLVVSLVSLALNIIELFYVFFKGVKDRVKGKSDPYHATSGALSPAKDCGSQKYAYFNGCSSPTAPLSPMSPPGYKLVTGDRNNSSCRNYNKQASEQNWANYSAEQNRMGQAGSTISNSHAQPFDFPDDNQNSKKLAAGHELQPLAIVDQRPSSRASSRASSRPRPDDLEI
In the next data set the target is Panx1 channel (Homo sapiens, UniProt Q96RD7). The following applies: cited from earlier work.
Chain of Panx1 channel (Q96RD7 whole entry): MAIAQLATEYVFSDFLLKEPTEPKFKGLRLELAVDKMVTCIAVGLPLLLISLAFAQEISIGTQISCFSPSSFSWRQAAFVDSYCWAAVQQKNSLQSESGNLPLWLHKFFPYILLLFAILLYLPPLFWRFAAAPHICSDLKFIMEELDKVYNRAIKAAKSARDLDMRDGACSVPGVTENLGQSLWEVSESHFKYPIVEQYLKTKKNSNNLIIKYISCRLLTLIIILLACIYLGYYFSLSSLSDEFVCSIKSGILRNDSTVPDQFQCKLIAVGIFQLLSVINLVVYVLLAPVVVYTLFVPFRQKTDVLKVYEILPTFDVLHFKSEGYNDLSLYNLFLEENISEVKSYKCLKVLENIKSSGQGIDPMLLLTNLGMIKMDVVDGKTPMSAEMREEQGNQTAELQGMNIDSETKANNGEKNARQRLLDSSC
A short description of data set [1]: Pharmacokinetics of tonabersat after single and repeat oral dosing, 40 and 80 mg once daily. The following applies: for half-life: human, plasma. In kind it is in vivo, human. The text has this:
In some embodiments, a connexin hemichannel modulator (e.g., a connexin 43 hemichannel modulator) is provided in an amount to achieve and/or to maintain a steady state amount over a desired period of time, including some or part of a dosing regimen for use in addressing one or more signs or symptom of a post-acute infection syndrome, disorder, disease or condition. In some embodiments, the connexin hemichannel modulator (e.g., a connexin 43 hemichannel modulator) is a compound according to Formula I. In some embodiments, the connexin hemichannel modulator (e.g., a connexin 43 hemichannel modulator) is a compound according to Formula II.

The nature of data set [2]: Pharmacokinetics of tonabersat after single and multiple dosing, 240 to 400 mg, fasted and fed (MAD and DDI parts). In kind it is in vivo, human. To be noted: for AUC(0-inf) / half-life / Tmax: human, in vivo, oral; for AUC(0-inf): 320 mg; for half-life: read-out: geometric mean t1/2; for Tmax: read-out: median tmax. The text has this:
In some embodiments, a connexin hemichannel modulator (e.g., a connexin 43 hemichannel modulator) is provided in an amount to achieve and/or to maintain a steady state amount over a desired period of time, including some or part of a dosing regimen for use in addressing one or more signs or symptom of a post-acute infection syndrome, disorder, disease or condition. In some embodiments, the connexin hemichannel modulator (e.g., a connexin 43 hemichannel modulator) is a compound according to Formula I. In some embodiments, the connexin hemichannel modulator (e.g., a connexin 43 hemichannel modulator) is a compound according to Formula II. […] There was no evidence of time- or dose-related changes in systemic exposure of tonabersat. For a drug to show no change in its pharmacokinetic behavior on chronic dosing, the steady-state accumulation ratio (Rs) should equal unity. […] After both single and multiple dosing, Cmax and AUC increased with increasing dose in a dose-proportional manner across the dose range studied. […] Therefore, total exposure (extent of absorption) was not affected by food administration, whereas the rate of drug absorption was increased in the presence of food. […] The half-life was not affected by fed conditions.

For the next data set, the target named is gap junctions (Homo sapiens, UniProt P08034). Set-up: dose or concentration left out as unconfirmed. To be noted: cited from earlier work.
Chain of gap junctions (P08034 whole entry): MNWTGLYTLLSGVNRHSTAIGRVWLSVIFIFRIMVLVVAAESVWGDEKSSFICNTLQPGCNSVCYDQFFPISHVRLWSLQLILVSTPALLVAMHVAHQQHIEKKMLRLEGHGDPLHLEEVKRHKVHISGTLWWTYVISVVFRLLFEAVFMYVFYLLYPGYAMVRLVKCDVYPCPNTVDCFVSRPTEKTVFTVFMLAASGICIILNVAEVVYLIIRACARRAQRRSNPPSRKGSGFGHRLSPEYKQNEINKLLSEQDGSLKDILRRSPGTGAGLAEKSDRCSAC

Chain of NLRP3 inflammasome (Q96P20 whole entry): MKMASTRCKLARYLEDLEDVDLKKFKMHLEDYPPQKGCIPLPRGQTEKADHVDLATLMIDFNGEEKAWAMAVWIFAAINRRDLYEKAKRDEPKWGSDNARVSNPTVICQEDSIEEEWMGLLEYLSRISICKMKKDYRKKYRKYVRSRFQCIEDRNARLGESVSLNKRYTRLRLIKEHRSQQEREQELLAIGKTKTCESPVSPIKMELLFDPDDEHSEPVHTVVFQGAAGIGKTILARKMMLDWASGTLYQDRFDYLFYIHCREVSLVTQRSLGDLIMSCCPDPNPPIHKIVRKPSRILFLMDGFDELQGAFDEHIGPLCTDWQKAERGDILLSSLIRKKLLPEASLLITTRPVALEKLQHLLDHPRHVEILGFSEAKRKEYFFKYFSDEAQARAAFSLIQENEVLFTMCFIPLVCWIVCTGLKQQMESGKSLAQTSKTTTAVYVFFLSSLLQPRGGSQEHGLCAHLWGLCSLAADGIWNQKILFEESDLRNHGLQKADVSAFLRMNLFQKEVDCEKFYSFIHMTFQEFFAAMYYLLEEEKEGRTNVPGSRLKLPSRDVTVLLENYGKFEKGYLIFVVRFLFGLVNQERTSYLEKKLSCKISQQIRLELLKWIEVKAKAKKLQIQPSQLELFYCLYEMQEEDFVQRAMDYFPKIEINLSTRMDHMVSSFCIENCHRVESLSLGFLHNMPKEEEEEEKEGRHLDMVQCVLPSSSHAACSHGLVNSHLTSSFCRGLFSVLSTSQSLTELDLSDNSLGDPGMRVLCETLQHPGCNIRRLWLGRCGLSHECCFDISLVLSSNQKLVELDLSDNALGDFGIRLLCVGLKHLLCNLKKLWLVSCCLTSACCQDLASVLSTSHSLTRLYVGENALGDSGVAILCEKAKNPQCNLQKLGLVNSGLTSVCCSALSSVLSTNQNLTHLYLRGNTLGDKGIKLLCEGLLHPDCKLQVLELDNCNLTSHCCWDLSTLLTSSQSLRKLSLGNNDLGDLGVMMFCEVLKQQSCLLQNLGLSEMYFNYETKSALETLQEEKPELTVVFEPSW

With `CC(C)C[C@H](NC(=O)[C@H](Cc1ccccc1)NC(=O)c1c(F)cccc1F)B(O)O` [NIC-102, ((R)-1-((S)-2-(2,6-difluorobenzamido)-3-phenylpropanamido)-3-methylbutyl)boronic acid], the “effect on NLRC4 inflammasome” value in the data set with NLRC4 inflammasome is given as “no effect”. The “effect on AIM2 inflammasome” value in the data set with AIM2 inflammasome is “no effect”. For the same compound, the “effect on NLRP3 inflammasome activation” value on NLRP3 inflammasome is “specifically prevents”.

On to `CC[C@H](C)[C@H](NC(=O)[C@H](CCC(=O)O)NC(=O)[C@@H](NC(=O)[C@H](CCC(N)=O)NC(=O)[C@H](CCCCN)NC(=O)[C@H](CCCNC(=N)N)NC(=O)[C@H](CCCNC(=N)N)NC(=O)[C@H](CCCNC(=N)N)NC(=O)[C@H](CCC(N)=O)NC(=O)[C@H](CCCNC(=N)N)NC(=O)[C@H](CCCNC(=N)N)NC(=O)[C@H](CCCCN)NC(=O)[C@H](CCCCN)NC(=O)[C@H](CCCNC(=N)N)NC(=O)CNC(=O)[C@@H](N)Cc1ccc(O)cc1)[C@@H](C)CC)C(=O)N[C@@H](CCCCN)C(=O)N[C@@H](CCCCN)C(=O)N[C@@H](Cc1ccccc1)C(=O)N[C@@H](CCCCN)C(=O)O` [TAT-^43Gap19] (H-YGRKKRRQRRRKQIEIKKFK-OH; N-terminus and C-terminus assumed), for which, in the data set with Cx43 hemichannel, the IC50 is 7 µM.

On to `CC[C@H](C)[C@H](NC(=O)[C@H](CCC(=O)O)NC(=O)[C@@H](NC(=O)[C@H](CCC(N)=O)NC(=O)[C@@H](N)CCCCN)[C@@H](C)CC)C(=O)N[C@@H](CCCCN)C(=O)N[C@@H](CCCCN)C(=O)N[C@@H](Cc1ccccc1)C(=O)N[C@@H](CCCCN)C(=O)O` [^43Gap19] (H-KQIEIKKFK-OH; N-terminus and C-terminus assumed), for which the “effect on gap junction activity (selectivity)” value at gap junction is “does not affect”. Besides, the “effect on Panx1 channel activity (selectivity)” value on Panx1 channel was “does not affect”. Moreover, the IC50 in the data set with Cx43 hemichannel is 47 µM.

The term AUC(0-inf) denotes the area under the concentration-time curve extrapolated to infinity. The Tmax is the time from dosing to the highest level. Take `CC(=O)c1ccc2c(c1)[C@H](NC(=O)c1ccc(F)c(Cl)c1)[C@H](O)C(C)(C)O2` [tonabersat, N-[(3S,4S)-6-acetyl-3-hydroxy-2,2-dimethyl-3,4-dihydrochromen-4-yl]-3-chloro-4-fluorobenzamide]: in data set [1] (between 40 and 80 mg once daily, single or multiple doses), the “dose proportionality of pharmacokinetics (dose-normalized Cmax and AUC(0-t))” value is “approximately dose proportional”. Further, the half-life in [1] (oral, read-out: elimination half-life) was 24 to 36 h; in [1] (oral, read-out: mean half-life (converted)), about 25 h; in data set [1] (po, single and repeat oral dosing, read-out: terminal elimination phase T1/2), 24 to 33 h; in data set [2] (after multiple dosing, Day 14) it was 37.5 to 41.6 h; in data set [2] (after single dosing), 28.9 to 37.8 h. In addition, the “time tonabersat generally quantifiable in the plasma post-dose” value in data set [1] (single and repeat oral dosing) was “at least 96 hours”. In addition, in data set [1] (single and repeat oral dosing), the “time- or dose-related changes in systemic exposure” value is reported as “no evidence”. Also, the “half-life, effect of fed conditions” value in data set [2] (fed vs fasted) is “not affected”. For the same compound, the “rate of drug absorption in the presence of food” value in data set [2] (fed vs fasted) is recorded as “increased”. For the same compound, the “total exposure (extent of absorption), effect of food administration” value in data set [2] (fed vs fasted) is on record as “not affected”. The figures for the AUC(0-inf) in data set [2] (single dose 320 mg fasted) and in data set [2] (single dose 320 mg fed) were 285 µg·h/mL and 296 µg·h/mL, respectively. In addition, the Tmax in data set [2] (single dose 240 mg, fasted) was 16 h; in data set [2] (single dose 320 mg, fasted) it was 10.5 h; in data set [2] (single or multiple dosing 240 mg to 400 mg, fed (light, medium or fed)), 3 to 4 h. Further, the “accumulation of Cmax and AUC” value in data set [2] (multiple dosing 13 to 14 consecutive days, Days 13 or 14 compared to Day 1) is “approximately 3 fold”. Besides, in [2] (single and multiple dosing, across the dose range studied), the “Cmax and AUC increase with increasing dose” value was “dose-proportional”.

Turning to GHGDPLHLEEVKC [^32Gap24], in the data set with gap junctions, the “effect on gap junctions” value is “without affecting”.
